Assay [1] has as its system human monocytes. As to the kind of experiment: HMGB1-induced monocyte activation (cytokine mRNA by q-PCR, protein by ELISA/MSD). The format is cell-based. How it is done:
(§1) Monocyte isolation and stimulation: Human PBMCs were obtained following institutional guidelines of the Feinstein Institute for Medical Research (Feinstein) and isolated from blood of healthy donors by density centrifugation (New York Blood Bank). Monocytes were negatively enriched using a human monocyte enrichment kit (Stem Cell Technology). Purity of monocytes (≥90% CD11b+CD14+LAIR-1+) was determined by flow cytometry. […] Splenic murine monocytes from wild type mice, RAGE deficient or LAIR-1 conditional knockout mice were isolated using EasySep mouse monocyte enrichment kit (Stem Cell Technology). C57BL/6 mice, Lysozyme2-Cre transgenic mice were purchased from Jackson Laboratory. Myeloid specific LAIR-1 conditional knockout mice (Lysozyme2-Cre×LAIR fl/fl) were bred and maintained in our facility (Feinstein) under specific pathogen-free conditions. RAGE deficient mice (Department of Medicine, Karolinska Institute Stockholm, Sweden) were maintained at Feinstein. Eight-to ten weeks old male mice were used for experiments. All animal procedures were approved by the Feinstein Institutional Animal Care and Use Committee.
(§2) RT-PCR analysis and primers: Total RNA was extracted from cells (1-2×10^6 cells per sample) with an RNeasy kit (Qiagen, Venlo, Limburg, Netherlands) and cDNA was generated using an iScript cDNA synthesis kit (Bio-Rad laboratories). Real Time-PCR was performed on a Light Cycler 480 II (Roche) using Light Cycler 480 master mix with primers (Applied Biosystems) for IFNα1 (Hs00256882), IFNα7 (mm02525960), MX1 (Hs00182073, mm01217998), IL-6 (Hs00985639, mm99999064), TNFα (Hs00174128, mm00443258), IL-12a (Hs00168405), Mer (Hs01031973), PDL-1 (Hs01125301), IL-10 (Hs00961622), CD163 (Hs00174705), HPRT1 (Hs99999909, mm01545399) and Polr2a (Hs00172187). The genes of interest were normalized to the expression of house keeping genes and were compared to a control condition with no treatment. The relative induction was calculated by 2-ΔΔCt.
Transfection: For RNA interference assays, human monocytes were transfected using an Amaxa Nucleofector kit (Lonza) with a greater than 40% transfection efficiency. siRNAs were obtained from Qiagen. The target sequence of human LAIR1-11 is […] (SEQ ID NO:9). The efficiency of knockdown was determined by flow cytometry and q-PCR.
(§3) Cytokine analysis: Cytokine levels were measured using a Human Proinflammatory 7-plex assay following the manufacturer's protocols (Meso Scale Discovery (MSD). MSD plates were analyzed on the MS2400 imager (MSD). All standards and samples were run in duplicates.
(In general: ELISA stands for enzyme-linked immunosorbent assay.)

Assay [2] deals with splenic monocytes of C57BL/6 wild type, RAGE deficient or LAIR-1 deficient mice. Put plainly: HMGB1-induced gene transcription in murine splenic monocytes (wild type, RAGE deficient, LAIR-1 deficient). The format is cell-based, mouse. As for the experimental part:
as §1, §2

For assay [3], the system named is human monocytes. Put plainly: CpG- or LPS-induced cytokine transcription in monocytes. It counts as cell-based. How it is done:
as §1, with “All animal procedures were approved by the Feinstein Institutional Animal Care and Use Committee.” left out
(§4) RT-PCR analysis and primers: Total RNA was extracted from cells (1-2×10^6 cells per sample) with an RNeasy kit (Qiagen, Venlo, Limburg, Netherlands) and cDNA was generated using an iScript cDNA synthesis kit (Bio-Rad laboratories). […] The relative induction was calculated by 2-ΔΔCt.

The target in assay [4] is T1, HMGB1 (Homo sapiens, UniProt P09429).
T1 construct: made in house
T1 sequence (P09429 1-215): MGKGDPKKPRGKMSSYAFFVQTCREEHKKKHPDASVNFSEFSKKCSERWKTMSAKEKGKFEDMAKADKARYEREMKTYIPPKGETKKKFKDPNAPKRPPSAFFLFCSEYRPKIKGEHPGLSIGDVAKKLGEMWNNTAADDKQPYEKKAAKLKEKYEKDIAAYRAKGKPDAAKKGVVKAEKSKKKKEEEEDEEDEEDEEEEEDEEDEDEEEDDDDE
As to the kind of experiment: SPR assay of HMGB1 and C1q binding, including redox states of HMGB1. How it is done:
Surface Plasmon Resonance analysis (SPR): For real-time binding interaction studies, a BIAcore T200 instrument (GE Healthcare) was used. […] A 1:1 mixture of N-hydroxysuccinimide and N-ethyl-N-(dimethyaminopropyl) carbodiimide was used to activate 2 flow-cells of the CMS chip. […] The analytes were diluted in 1×PBS+0.01% (vol/vol) tween-20 buffer. The analytes were sequentially injected at a flow rate of 30 μl/min for 60 s at 25° C. The KD was dertermined using the BIAcore evaluation software 2.0 (GE Healthcare) supposing a 1:1 binding ratio.
A 1:1 mixture of N-hyrdoxysuccinimide and N-ethyl-N-(dimethyaminopropyl) carbodiimide was used to activate 2 flow-cells of the CMS chip. […] The analyte (HMGB1) was diluted in 1×HBS-N+0.05% tween-20 buffer (filtered—0.22 um). Three redox states of HMGB1 were sequentially injected at a flow rate of 20 μl/min for 60 s at 25° C., the dissociation time was set for 3 minutes. The concentration was set at 500 nM.
The analytes were diluted in 1×HBS-N+0.05% tween-20 buffer (filtered—0.22 um). The analytes were sequentially injected at a flow rate of 20 μl/min for 60 s at 25° C. The dissociation time was set for 3 minutes. The KD for each analyte was determined using the Biacore evaluation software 2.0 supposing a 1:1 binding ratio.

For assay [5], the system named is human monocytes. Put plainly: Induction of anti-inflammatory molecules / M2-like phenotype (Mer, PDL-1, IL-10, CD163) in monocytes. The format is cell-based. How it is done: as §1, §4, §3
Flow cytometry: Cells were suspended in staining buffer containing 2% BSA and incubated with Fc block (Miltenyi Biotec) for 15 min on ice. […] Events were acquired using either an LSRII or Fortessa cell analyzer (BD Biosciences), and data were analyzed using FlowJo (Tree star).

Assay [6] deals with human monocytes. As to the kind of experiment: Monocyte to DC differentiation with GM-CSF and IL-4 (flow cytometry). It counts as cell-based. The following applies: compared with C1q alone. On the technique in general: In flow cytometry, cells or beads pass a laser one at a time.
Where [7] appears, read: C1q 25 μg/ml, HMGB1 3 μg/ml, 6 h.
Where [8] appears, read: HMGB1 3 μg/ml, C1q 25 μg/ml, 6 h.

With “C1q: C1q purified from pooled normal human sera, obtained from Complement Technology”, in assay [1] (setting [7]), the “HMGB1-induced IFN, IL-6 and TNFα in adherent cell fraction of PBMCs” value was “inhibited this HMGB1-mediated activation”; the “HMGB1-mediated cytokine induction in monocytes treated with LAIR-1-specific siRNA” value was “no effect”. For the same substance, the “HMGB1-induced monocyte activation in the presence of soluble decoy receptor LAIR-2” value in assay [1] (C1q 25 μg/ml, LAIR-2 20 μg/ml, HMGB1 3 μg/ml, 6 h) was “failed to inhibit monocyte activation”. Also, in assay [1] (C1q alone, serum free medium), the “transcription of cytokine genes in the absence of HMGB1” value is recorded as “did not alter transcription”. In addition, the “monocyte activation by HMGB1, C1q levels commonly present in SLE patients” value in assay [1] (C1q ˜25-50 μg/ml) is reported as “less inhibitory”. For the same substance, the “HMGB1-mediated cytokine transcription and protein induction” value in assay [1] (HMGB1 3 μg/ml, various C1q concentrations, serum free medium, 6 h mRNA, 24 h protein) is “counteracted the HMGB1-mediated cytokine transcription and protein induction in a dose-dependent manner”. Also, the “inhibitory effect of C1q at increased HMGB1 level” value in assay [1] (HMGB1 10 μg ml-1) was “abrogated the inhibitory effect of C1q”. Further, the “monocyte activation by HMGB1, physiologic levels of C1q” value in assay [1] (physiologic C1q levels) is listed as “effectively blocked monocyte activation”. Besides, in assay [2] (setting [8]), the “HMGB1-induced gene transcription in RAGE-deficient cells” value is on record as “no change in HMGB1-induced gene transcription” and the “HMGB1-induced proinflammatory cytokine gene transcription in wild type cells” value is listed as “reduction in HMGB1-induced proinflammatory cytokine gene transcription”. In addition, in assay [2] (Lysozyme-Cre x floxed LAIR-1 mice), the “HMGB1-induced mRNA expression in LAIR-1 deficient monocytes” value was “no inhibitory effect”. Also, the “CpG-mediated induction of pro-inflammatory cytokines and IFN inducible genes” value in assay [3] (CpG 2216) is on record as “inhibits CpG-mediated induction of pro-inflammatory cytokines”. For the same substance, in assay [3] (LPS), the LPS-induced cytokine transcription result is “no effect on LPS-induced cytokine transcription”. For the same substance, in assay [4] (disulfide, all thiol, oxidized HMGB1), the “binding to different redox states of HMGB1” value is on record as “preferentially binding to the disulfide form of HMGB1”. Moreover, the Kd in assay [4] (read-out: KD of HMGB1 and C1q binding, 25° C., 1:1 binding ratio supposed) stood at 200 nM. The “potency of physiologic C1q levels versus SLE levels (25-50 μg/ml) for Mer, PDL-1, IL-10, CD163 mRNA” value in assay [5] (C1q 10, 25, 50 or 75 μg/ml with HMGB1, 24 h) is “more potent”. In assay [5] (together with HMGB1 3 μg/ml, C1q 25 μg/ml or C1q tail 53 μg/ml, 24 h), the “transcription and protein expression of anti-inflammatory factors (Mer, PDL-1, IL-10, CD163)” value was “induced the transcription and protein expression of a variety of anti-inflammatory factors”. Also, the “expression of CD14 and LAIR-1 after GM-CSF and IL-4, pre-exposure to both HMGB1 and C1q” value in assay [6] is listed as “significantly higher”.
